Laboratory results from US20240190890A1, “MK2 INHIBITORS AND USES THEREOF” (Bristol-Myers Squibb Company, priority 2022, published 2024).

Target: p38a activated, mitogen-activated protein kinase-activated protein kinase 2 (MAPKAP-K2 or MK2) enzyme (Homo sapiens (Human), UniProt P49137)
Experiment: MK2 Omnia continuous-read kinase assay for compound potency
Format: biochemical
Details: [MK-2]=0.4 nM, [ATP]=10 μM, [ST3-Sox]=10 μM; room temperature
Procedure, shortened: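 Continuous Sox-peptide fluorescence read (ex360/em485) every 71 s over 2 h at room temperature. Reactions: 10 μM each of ATP (at apparent Km) and S/T3-Sox, 0.4 nM p38a-activated MK2, pH 7.5 Tris/MgCl2 buffer. Initial rates yield % inhibition and IC50; single-exponential kobs values yield apparent kinact/KI.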

Chain of p38a activated, mitogen-activated protein kinase-activated protein kinase 2 (MAPKAP-K2 or MK2) enzyme (P49137 whole entry): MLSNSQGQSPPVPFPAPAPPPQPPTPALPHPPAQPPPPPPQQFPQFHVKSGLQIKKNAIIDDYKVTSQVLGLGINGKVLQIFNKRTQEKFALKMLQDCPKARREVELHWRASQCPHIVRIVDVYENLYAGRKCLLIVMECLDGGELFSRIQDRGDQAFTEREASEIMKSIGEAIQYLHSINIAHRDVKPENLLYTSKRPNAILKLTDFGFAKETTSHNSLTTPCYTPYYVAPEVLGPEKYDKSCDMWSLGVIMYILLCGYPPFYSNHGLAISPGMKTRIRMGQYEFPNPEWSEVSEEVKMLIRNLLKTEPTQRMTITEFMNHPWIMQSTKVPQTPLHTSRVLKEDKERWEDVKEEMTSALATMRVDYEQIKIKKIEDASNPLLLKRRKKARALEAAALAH

Compound | IC50
C=C(CN(C)C)c1cc(-c2ccc3c(ccc4sc5c(c43)NC[C@@H](C)NC5=O)n2)ccn1 [Example I-117, (R)-3-(2-(3-(dimethylamino)prop-1-en-2-yl)pyridin-4-yl)-10-methyl-9,10,11,12-tetrahydro-8H-[1,4]diazepino[5′,6′:4,5]thieno[3,2-f]quinolin-8-one] | 6 nM
C=Cc1cc(-c2ccc3c(ccc4sc5c(c43)NC[C@@H](C)NC5=O)n2)c(C)nn1 [Example I-136, (R)-10-methyl-3-(3-methyl-6-vinylpyridazin-4-yl)-9,10,11,12-tetrahydro-8H-[1,4]diazepino[5′,6′:4,5]thieno[3,2-f]quinolin-8-one] | 9 nM
C=Cc1cc(-c2ccc3c(ccc4sc5c(c43)NC[C@@H](C)NC5=O)n2)c(C)c(CN2CCOCC2)n1 [Example I-197, (R)-10-methyl-3-(3-methyl-2-(morpholinomethyl)-6-vinylpyridin-4-yl)-9,10,11,12-tetrahydro-8H-[1,4]diazepino[5′,6′:4,5]thieno[3,2-f]quinolin-8-one] | 5 nM
C#Cc1nc(CN2CCN(C)CC2)cc(-c2ccc3c(ccc4sc5c(c43)NC[C@@H](C)NC5=O)n2)n1 [Example I-89, (R)-3-(2-ethynyl-6-((4-methylpiperazin-1-yl)methyl)pyrimidin-4-yl)-10-methyl-9,10,11,12-tetrahydro-8H-[1,4]diazepino[5′,6′:4,5]thieno[3,2-f]quinolin-8-one] | 26 nM
C=Cc1cc(-c2ccc3c(ccc4sc5c(c43)NC[C@@H](C)NC5=O)n2)nc(N2CCN(C)CC2)n1 [Example I-19, (R)-10-methyl-3-(2-(4-methylpiperazin-1-yl)-6-vinylpyrimidin-4-yl)-9,10,11,12-tetrahydro-8H-[1,4]diazepino[5′,6′:4,5]thieno[3,2-f]quinolin-8-one] | 4 nM
(10R)-3-(2-(2,6-dimethylmorpholino)-6-vinylpyridin-4-yl)-10-methyl-9,10,11,12-tetrahydro-8H-[1,4]diazepino[5′,6′:4,5]thieno[3,2-f]quinolin- [Example I-201] | 73 nM
C/C=C/c1cc(-c2ccc3c(ccc4sc5c(c43)NC[C@@H](C)NC5=O)n2)c(C)cn1 [Example I-265, (R,E)-10-methyl-3-(5-methyl-2-(prop-1-en-1-yl)pyridin-4-yl)-9,10,11,12-tetrahydro-8H-[1,4]diazepino[5′,6′:4,5]thieno[3,2-f]quinolin-8-one] | 210 nM
C#Cc1nc(C#CC(C)(C)N)cc(-c2ccc3c(ccc4sc5c(c43)NC[C@@H](C)NC5=O)n2)n1 [Example I-65, (R)-3-(6-(3-amino-3-methylbut-1-yn-1-yl)-2-ethynylpyrimidin-4-yl)-10-methyl-9,10,11,12-tetrahydro-8H-[1,4]diazepino[5′,6′:4,5]thieno[3,2-f]quinolin-8-one] | 132 nM
C[C@@H]1CNc2c(sc3ccc4nc(-c5ccnc(C#CC(C)(C)N)c5)ccc4c23)C(=O)N1 [Example I-135, (R)-3-(2-(3-amino-3-methylbut-1-yn-1-yl)pyridin-4-yl)-10-methyl-9,10,11,12-tetrahydro-8H-[1,4]diazepino[5′,6′:4,5]thieno[3,2-f]quinolin-8-one] | 15 nM
C=Cc1cc(-c2ccc3c(ccc4sc5c(c43)NC[C@@H](C)NC5=O)n2)nc(CO)n1 [Example I-76, (R)-3-(2-(hydroxymethyl)-6-vinylpyrimidin-4-yl)-10-methyl-9,10,11,12-tetrahydro-8H-[1,4]diazepino[5′,6′:4,5]thieno[3,2-f]quinolin-8-one] | 1 nM
C#Cc1cc(-c2ccc3c(ccc4sc5c(c43)NC[C@@H](C)NC5=O)n2)cc(Cl)n1 [Example I-73, (R)-3-(2-chloro-6-ethynylpyridin-4-yl)-10-methyl-9,10,11,12-tetrahydro-8H-[1,4]diazepino[5′,6′:4,5]thieno[3,2-f]quinolin-8-one] | 75 nM
COCc1nc(Cl)cc(-c2ccc3c(ccc4sc5c(c43)NC[C@@H](C)NC5=O)n2)n1 [Example I-7, (R)-3-(6-chloro-2-(methoxymethyl)pyrimidin-4-yl)-10-methyl-9,10,11,12-tetrahydro-8H-[1,4]diazepino[5′,6′:4,5]thieno[3,2-f]quinolin-8-one] | 6 nM
C/C=C/c1cc(-c2ccc3c(ccc4sc5c(c43)NC[C@@H](C)NC5=O)n2)nc(COCC)n1 [Example I-35, (R,E)-3-(2-(ethoxymethyl)-6-(prop-1-en-1-yl)pyrimidin-4-yl)-10-methyl-9,10,11,12-tetrahydro-8H-[1,4]diazepino[5′,6′:4,5]thieno[3,2-f]quinolin-8-one] | 40 nM
C=Cc1cc(-c2ccc3c(ccc4sc5c(c43)NC[C@@H](C)NC5=O)n2)c(OCCN2CCCC2)nn1 [Example I-118, (R)-10-methyl-3-(3-(2-(pyrrolidin-1-yl)ethoxy)-6-vinylpyridazin-4-yl)-9,10,11,12-tetrahydro-8H-[1,4]diazepino[5′,6′:4,5]thieno[3,2-f]quinolin-8-one] | 28 nM
C=Cc1nc(-c2ccc3c(ccc4sc5c(c43)NC[C@@H](C)NC5=O)n2)cnc1C [Example I-166, (R)-10-methyl-3-(5-methyl-6-vinylpyrazin-2-yl)-9,10,11,12-tetrahydro-8H-[1,4]diazepino[5′,6′:4,5]thieno[3,2-f]quinolin-8-one] | 181 nM
CCOCc1nc(Cl)cc(-c2ccc3c(ccc4sc5c(c43)NC[C@@H](C)NC5=O)n2)n1 [Example I-30, (R)-3-(6-chloro-2-(ethoxymethyl)pyrimidin-4-yl)-10-methyl-9,10,11,12-tetrahydro-8H-[1,4]diazepino[5′,6′:4,5]thieno[3,2-f]quinolin-8-one] | 16 nM
C=Cc1nn(C)nc1-c1ccc2c(ccc3sc4c(c32)NC[C@@H](C)NC4=O)n1 [Example I-232, (R)-10-methyl-3-(2-methyl-5-vinyl-2H-1,2,3-triazol-4-yl)-9,10,11,12-tetrahydro-8H-[1,4]diazepino[5′,6′:4,5]thieno[3,2-f]quinolin-8-one] | 77 nM
COc1nnc(/C=C/C(F)(F)F)cc1-c1ccc2c(ccc3sc4c(c32)NC[C@@H](C)NC4=O)n1 [Example I-200, (R,E)-3-(3-methoxy-6-(3,3,3-trifluoroprop-1-en-1-yl)pyridazin-4-yl)-10-methyl-9,10,11,12-tetrahydro-8H-[1,4]diazepino[5′,6′:4,5]thieno[3,2-f]quinolin-8-one] | 1000 nM
C=Cc1nc(C)n(-c2ccc3c(ccc4sc5c(c43)NC[C@@H](C)NC5=O)n2)n1 [Example I-261, (R)-10-methyl-3-(5-methyl-3-vinyl-1H-1,2,4-triazol-1-yl)-9,10,11,12-tetrahydro-8H-[1,4]diazepino[5′,6′:4,5]thieno[3,2-f]quinolin-8-one] | 1000 nM
C=Cc1nscc1-c1ccc2c(ccc3sc4c(c32)NC[C@@H](C)NC4=O)n1 [Example I-228, (R)-10-methyl-3-(3-vinylisothiazol-4-yl)-9,10,11,12-tetrahydro-8H-[1,4]diazepino[5′,6′:4,5]thieno[3,2-f]quinolin-8-one] | 128 nM
C[C@@H]1CNc2c(sc3ccc4nc(-c5cc(Cl)nnc5OCCN5CCCC5)ccc4c23)C(=O)N1 [Example I-119, (R)-3-(6-chloro-3-(2-(pyrrolidin-1-yl)ethoxy)pyridazin-4-yl)-10-methyl-9,10,11,12-tetrahydro-8H-[1,4]diazepino[5′,6′:4,5]thieno[3,2-f]quinolin-8-one] | 981 nM
C=Cc1cc(-c2ccc3c(ccc4sc5c(c43)NC[C@@H](C)NC5=O)n2)cc(N2CCC(C(F)(F)F)CC2)n1 [Example I-202, (R)-10-methyl-3-(2-(4-(trifluoromethyl)piperidin-1-yl)-6-vinylpyridin-4-yl)-9,10,11,12-tetrahydro-8H-[1,4]diazepino[5′,6′:4,5]thieno[3,2-f]quinolin-8-one] | 674 nM
C=Cc1cc(-c2ccc3c(ccc4sc5c(c43)NC[C@@H](C)NC5=O)n2)cc(C2=CCN(C)CC2)n1 [Example I-101, (R)-10-methyl-3-(1′-methyl-6-vinyl-1′,2′,3′,6′-tetrahydro-[2,4′-bipyridin]-4-yl)-9,10,11,12-tetrahydro-8H-[1,4]diazepino[5′,6′:4,5]thieno[3,2-f]quinolin-8-one] | 8 nM
C#Cc1cc(N2CCN(C)CC2)nc(-c2ccc3c(ccc4sc5c(c43)NC[C@@H](C)NC5=O)n2)n1 [Example I-61, (R)-3-(4-ethynyl-6-(4-methylpiperazin-1-yl)pyrimidin-2-yl)-10-methyl-9,10,11,12-tetrahydro-8H-[1,4]diazepino[5′,6′:4,5]thieno[3,2-f]quinolin-8-one] | 73 nM
C/C=C\c1ncc(F)c(-c2ccc3c(ccc4sc5c(c43)NC[C@@H](C)NC5=O)n2)n1 [Example I-46, (R,Z)-3-(5-fluoro-2-(prop-1-en-1-yl)pyrimidin-4-yl)-10-methyl-9,10,11,12-tetrahydro-8H-[1,4]diazepino[5′,6′:4,5]thieno[3,2-f]quinolin-8-one] | 765 nM
C=Cc1cc(-c2ccc3c(ccc4sc5c(c43)NC[C@@H](C)NC5=O)n2)cc(CN2CCC(F)(F)CC2)n1 [Example I-123, (R)-3-(2-((4,4-difluoropiperidin-1-yl)methyl)-6-vinylpyridin-4-yl)-10-methyl-9,10,11,12-tetrahydro-8H-[1,4]diazepino[5′,6′:4,5]thieno[3,2-f]quinolin-8-one] | 31 nM
C=Cc1nc(CN2CCN(C)CC2)cc(-c2ccc3c(ccc4sc5c(c43)NC[C@@H](C)NC5=O)n2)n1 [Example I-88, (R)-10-methyl-3-(6-((4-methylpiperazin-1-yl)methyl)-2-vinylpyrimidin-4-yl)-9,10,11,12-tetrahydro-8H-[1,4]diazepino[5′,6′:4,5]thieno[3,2-f]quinolin-8-one] | 15 nM
C[C@@H]1CNc2c(sc3ccc4nc(-n5ccnc5C#N)ccc4c23)C(=O)N1 [Example I-246, (R)-1-(10-methyl-8-oxo-9,10,11,12-tetrahydro-8H-[1,4]diazepino[5′,6′:4,5]thieno[3,2-f]quinolin-3-yl)-1H-imidazole-2-carbonitrile] | 16 nM
